Measurements as given in patent US20240327397A1, “Pesticidally Active Fused Bicyclic Heteroaromatic Compounds” (SYNGENTA CROP PROTECTION AG, priority 2021, published 2024).

What was measured:
Assay type in all cases: in vivo
[1] = system: Plutella xylostella (Diamond Back Moth); assay: Example B3: Plutella xylostella, artificial diet in 24-well plates, eggs; details: 192 h, application rate 200 ppm, 8 days after infestation, versus untreated, read-out: effect in at least one of the two categories (mortality or growth inhibition)
Protocol: Example B3: Plutella xylostella (Diamond Back Moth)
24-well microtiter plates with artificial diet were treated with aqueous test solutions prepared from 10'000 ppm DMSO stock solutions by pipetting. After drying, Plutella eggs were pipetted through a plastic stencil onto a gel blotting paper and the plate was closed with it. The samples were assessed for mortality and growth inhibition in comparison to untreated samples 8 days after infestation.

[2] = system: Spodoptera littoralis (Eqyptian Cotton Leaf Worm); assay: Example B4: Spodoptera littoralis, sprayed cotton leaf discs, L1 larvae; details: foliar, 72 h, application rate 200 ppm, 3 days after infestation, versus untreated, read-out: control (at least one of mortality, anti-feedant effect, growth inhibition)
Protocol: Example B4: Spodoptera littoralis (Eqyptian Cotton Leaf Worm)
Cotton leaf discs were placed onto agar in 24-well microtiter plates and sprayed with aqueous test solutions prepared from 10'000 ppm DMSO stock solutions. After drying the leaf discs were infested with five L1 larvae. The samples were assessed for mortality, anti-feeding effect, and growth inhibition in comparison to untreated samples 3 days after infestation. Control of Spodoptera littoralis by a test sample is given when at least one of the categories mortality, anti-feedant effect, and growth inhibition is higher than the untreated sample.

[3] = system: Diabrotica Balteata (Corn Root Worm); assay: Example B2: Diabrotica balteata, sprayed maize sprouts on agar, L2 larvae; details: 96 h, application rate 200 ppm, 4 days after infestation, versus untreated, read-out: effect in at least one of the two categories (mortality or growth inhibition)
Protocol: Example B2: Diabrotica Balteata (Corn Root Worm)
Maize sprouts placed onto an agar layer in 24-well microtiter plates were treated with aqueous test solutions prepared from 10'000 ppm DMSO stock solutions by spraying. After drying, the plates were infested with L2 larvae (6 to 10 per well). The samples were assessed for mortality and growth inhibition in comparison to untreated samples 4 days after infestation.

[4] = system: Chilo suppressalis (Striped Rice Stemborer); assay: Example B1: Chilo suppressalis, artificial diet in 24-well plates, L2 larvae; details: 144 h, application rate 200 ppm, 6 days after infestation, versus untreated, read-out: control (at least one of mortality, anti-feedant effect, growth inhibition)
Protocol: Example B1: Chilo suppressalis (Striped Rice Stemborer)
24-well microtiter plates with artificial diet were treated with aqueous test solutions prepared from 10'000 ppm DMSO stock solutions by pipetting. After drying, the plates were infested with L2 larvae (6-8 per well). The samples were assessed for mortality, anti-feeding effect, and growth inhibition in comparison to untreated samples 6 days after infestation. Control of Chilo suppressalis by a test sample is given when at least one of the categories mortality, anti-feedant effect, and growth inhibition is higher than the untreated sample.

[5] = system: Myzus persicae (Green Peach Aphid); assay: Example B7: Myzus persicae, intrinsic activity, sucrose solution under Parafilm; details: 120 h, test rate 12 ppm, 5 days after infestation
Text: Example B7: Myzus persicae (Green Peach Aphid). Intrinsic Activity
Test compounds prepared from 10'000 ppm DMSO stock solutions were applied by pipette into 24-well microtiter plates and mixed with sucrose solution. The plates were closed with a stretched Parafilm. A plastic stencil with 24 holes was placed onto the plate and infested pea seedlings were placed directly on the Parafilm. The infested plate was closed with a gel blotting paper and another plastic stencil and then turned upside down. The samples were assessed for mortality 5 days after infestation.

[6] = system: Frankliniella occidentalis (Western Flower Thrips); assay: Example B5: Frankliniella occidentalis, feeding/contact activity, sunflower leaf discs; details: foliar, 168 h, application rate 200 ppm, population of mixed ages, 7 days after infestation
Protocol: Example B5: Frankliniella occidentalis (Western Flower Thrips). Feedinq/Contact Activity
Sunflower leaf discs were placed on agar in 24-well microtiter plates and sprayed with aqueous test solutions prepared from 10'000 DMSO stock solutions. After drying the leaf discs were infested with a Frankliniella population of mixed ages. The samples were assessed for mortality 7 days after infestation.

C[C@H](NC1=N[S@@](C)(=O)=Nc2c(Br)cc(Br)cc21)c1ncnn1-c1ccc(C#N)cn1 (single isomer, unassigned) [P6]
≥ 80%: percent effect (mortality or growth inhibition) at 200 ppm [1] | percent control (mortality, anti-feedant effect or growth inhibition) at 200 ppm [2] | percent effect (mortality or growth inhibition) at 200 ppm [3] | percent control (mortality, anti-feedant effect or growth inhibition) at 200 ppm [4]

C[C@H](NC1=N[S@](C)(=O)=Nc2c(Br)cc(Br)cc21)c1ncnn1-c1ccc(C#N)cn1 (single isomer, unassigned) [P7]
≥ 80%: percent effect (mortality or growth inhibition) at 200 ppm [1] | percent control (mortality, anti-feedant effect or growth inhibition) at 200 ppm [2] | percent effect (mortality or growth inhibition) at 200 ppm [3] | percent control (mortality, anti-feedant effect or growth inhibition) at 200 ppm [4]

C[C@H](NC1=N[S@](C)(=O)=Nc2ccc(Br)cc21)c1ncnn1-c1ccc(C#N)cn1 (single isomer, unassigned) [P8]
≥ 80%: percent effect (mortality or growth inhibition) at 200 ppm [1] | percent control (mortality, anti-feedant effect or growth inhibition) at 200 ppm [2] | percent control (mortality, anti-feedant effect or growth inhibition) at 200 ppm [4]

C[C@H](NC1=N[S@@](C)(=O)=Nc2ccc(Br)cc21)c1ncnn1-c1ccc(C#N)cn1 (single isomer, unassigned) [P9]
≥ 80%: percent effect (mortality or growth inhibition) at 200 ppm [1] | percent control (mortality, anti-feedant effect or growth inhibition) at 200 ppm [2] | percent effect (mortality or growth inhibition) at 200 ppm [3] | percent control (mortality, anti-feedant effect or growth inhibition) at 200 ppm [4]

CC(NC1=CS(C)(=O)=Nc2c1cc(C(F)(F)F)cc2C(F)(F)F)c1ncnn1-c1ncccn1 (stereo not shown) [P2, 3-methyl-3-oxo-N-[1-(2-pyrimidin-2-yl-1,2,4-triazol-3-yl)ethyl]-8,10-bis(trifluoromethyl)-3λ^6-thia-2-azabicyclo[4.4.0]deca-1(6),2,4,7,9-pentaen-5-amine]
≥ 80%: percent effect (mortality or growth inhibition) at 200 ppm [1] | percent control (mortality, anti-feedant effect or growth inhibition) at 200 ppm [2] | percent effect (mortality or growth inhibition) at 200 ppm [3] | percent control (mortality, anti-feedant effect or growth inhibition) at 200 ppm [4]

CC(NC1=CS(C)(=O)=Nc2c1cc(C(F)(F)F)cc2C(F)(F)F)c1ncnn1-c1ccc(C#N)cn1 (stereo not shown) [P3]
≥ 80%: percent control (mortality, anti-feedant effect or growth inhibition) at 200 ppm [2] | percent control (mortality, anti-feedant effect or growth inhibition) at 200 ppm [4]

CC(NC1=NS(C)(=O)=Nc2c(Br)cc(Br)cc21)c1ncnn1-c1ccc(C#N)cn1 (stereo not shown) [P4, 6-[5-[1-[(8,10-dibromo-3-methyl-3-oxo-3λ^6-thia-2,4-diazabicyclo[4.4.0]deca-1(10),2,4,6,8-pentaen-5-yl)amino]ethyl]-1,2,4-triazol-1-yl]pyridine-3-carbonitrile]
≥ 80%: percent effect (mortality or growth inhibition) at 200 ppm [1] | percent control (mortality, anti-feedant effect or growth inhibition) at 200 ppm [2] | percent effect (mortality or growth inhibition) at 200 ppm [3] | percent control (mortality, anti-feedant effect or growth inhibition) at 200 ppm [4]

C[C@H](NC1=NS(C)(=O)=Nc2c(Br)cc(Br)cc21)c1ncnn1-c1ccc(C#N)cn1 (stereo partly drawn) [P5, 6-[5-[(1S)-1-[(8,10-dibromo-3-methyl-3-oxo-3λ^6-thia-2,4-diazabicyclo[4.4.0]deca-1(10),2,4,6,8-pentaen-5-yl)amino]ethyl]-1,2,4-triazol-1-yl]pyridine-3-carbonitrile]
≥ 80%: percent effect (mortality or growth inhibition) at 200 ppm [1] | percent control (mortality, anti-feedant effect or growth inhibition) at 200 ppm [2] | percent effect (mortality or growth inhibition) at 200 ppm [3] | percent control (mortality, anti-feedant effect or growth inhibition) at 200 ppm [4]

C[C@H](NC1=NS(C)(=O)=Nc2c(Br)cc(Br)cc21)c1ncnn1-c1cnccn1 (stereo partly drawn) [P11, 8,10-dibromo-3-methyl-3-oxo-N-[(1S)-1-(2-pyrazin-2-yl-1,2,4-triazol-3-yl)ethyl]-3λ^6-thia-2,4-diazabicyclo[4.4.0]deca-1(6),2,4,7,9-pentaen-5-amine]
≥ 80%: percent effect (mortality or growth inhibition) at 200 ppm [1] | percent control (mortality, anti-feedant effect or growth inhibition) at 200 ppm [2] | percent effect (mortality or growth inhibition) at 200 ppm [3] | percent control (mortality, anti-feedant effect or growth inhibition) at 200 ppm [4]

C[C@H](NC1=NS(C)(=O)=Nc2c(Cl)cc(C(F)(F)F)cc21)c1nccnc1-c1cnccn1 (stereo partly drawn) [P12, 10-chloro-3-methyl-3-oxo-N-[(1S)-1-(3-pyrazin-2-ylpyrazin-2-yl)ethyl]-8-(trifluoromethyl)-3λ^6-thia-2,4-diazabicyclo[4.4.0]deca-1(6),2,4,7,9-pentaen-5-amine]
≥ 80%: percent effect (mortality or growth inhibition) at 200 ppm [1] | percent control (mortality, anti-feedant effect or growth inhibition) at 200 ppm [2] | percent effect (mortality or growth inhibition) at 200 ppm [3]

C[C@H](NC1=NS(C)(=O)=Nc2c(Cl)cc(C(F)(F)F)cc21)c1ncnn1-c1ncccn1 (stereo partly drawn) [P13, 10-chloro-3-methyl-3-oxo-N-[(1S)-1-(2-pyrimidin-2-yl-1,2,4-triazol-3-yl)ethyl]-8-(trifluoromethyl)-3λ^6-thia-2,4-diazabicyclo[4.4.0]deca-1(6),2,4,7,9-pentaen-5-amine]
≥ 80%: mortality at 12 ppm [5] | percent effect (mortality or growth inhibition) at 200 ppm [1] | mortality at 200 ppm [6] | percent control (mortality, anti-feedant effect or growth inhibition) at 200 ppm [2] | percent effect (mortality or growth inhibition) at 200 ppm [3]

C[C@H](NC1=NS(C)(=O)=Nc2c(Cl)cc(C(F)(F)F)cc21)c1ncnn1-c1ccc(C#N)cn1 (stereo partly shown) [P15]
≥ 80%: percent effect (mortality or growth inhibition) at 200 ppm [1] | percent control (mortality, anti-feedant effect or growth inhibition) at 200 ppm [2] | percent effect (mortality or growth inhibition) at 200 ppm [3]

C[C@H](NC1=NS(C)(=O)=Nc2c1cc(Cl)cc2C(F)(F)F)c1ncnn1-c1ccc(C#N)cn1 (stereo partly shown) [P16]
≥ 80%: mortality at 12 ppm [5] | percent effect (mortality or growth inhibition) at 200 ppm [1] | percent control (mortality, anti-feedant effect or growth inhibition) at 200 ppm [2] | percent effect (mortality or growth inhibition) at 200 ppm [3] | percent control (mortality, anti-feedant effect or growth inhibition) at 200 ppm [4]

C[C@H](NC1=NS(C)(=O)=Nc2c1cc(Cl)cc2C(F)(F)F)c1ncnn1-c1cnccn1 (stereo partly drawn) [P17, 8-chloro-3-methyl-3-oxo-N-[(1S)-1-(2-pyrazin-2-yl-1,2,4-triazol-3-yl)ethyl]-10-(trifluoromethyl)-3λ^6-thia-2,4-diazabicyclo[4.4.0]deca-1(6),2,4,7,9-pentaen-5-amine]
≥ 80%: percent effect (mortality or growth inhibition) at 200 ppm [1] | percent control (mortality, anti-feedant effect or growth inhibition) at 200 ppm [2] | percent effect (mortality or growth inhibition) at 200 ppm [3]

C[C@H](NC1=NS(C)(=O)=Nc2c1cc(Cl)cc2C(F)(F)F)c1ncnn1-c1ncccn1 (stereo partly drawn) [P18, 8-chloro-3-methyl-3-oxo-N-[(1S)-1-(2-pyrimidin-2-yl-1,2,4-triazol-3-yl)ethyl]-10-(trifluoromethyl)-3λ^6-thia-2,4-diazabicyclo[4.4.0]deca-1(6),2,4,7,9-pentaen-5-amine]
≥ 80%: mortality at 12 ppm [5] | percent effect (mortality or growth inhibition) at 200 ppm [1] | percent control (mortality, anti-feedant effect or growth inhibition) at 200 ppm [2] | percent effect (mortality or growth inhibition) at 200 ppm [3] | percent control (mortality, anti-feedant effect or growth inhibition) at 200 ppm [4]

C[C@H](NC1=NS(C)(=O)=Nc2c1cc(Cl)cc2C(F)(F)F)c1nccnc1-c1cnccn1 (stereo partly drawn) [P19, 8-chloro-3-methyl-3-oxo-N-[(1S)-1-(3-pyrazin-2-ylpyrazin-2-yl)ethyl]-10-(trifluoromethyl)-3λ^6-thia-2,4-diazabicyclo[4.4.0]deca-1(6),2,4,7,9-pentaen-5-amine]
≥ 80%: percent effect (mortality or growth inhibition) at 200 ppm [1] | percent control (mortality, anti-feedant effect or growth inhibition) at 200 ppm [2] | percent effect (mortality or growth inhibition) at 200 ppm [3] | percent control (mortality, anti-feedant effect or growth inhibition) at 200 ppm [4]

C[C@@H](c1ncnn1-c1cnccn1)N(C)C1=NS(C)(=O)=Nc2c1cc(Cl)cc2C(F)(F)F (stereo partly drawn) [P20, 8-chloro-N,3-dimethyl-3-oxo-N-[(1S)-1-(2-pyrazin-2-yl-1,2,4-triazol-3-yl)ethyl]-10-(trifluoromethyl)-3λ^6-thia-2,4-diazabicyclo[4.4.0]deca-1(6),2,4,7,9-pentaen-5-amine]
≥ 80%: percent effect (mortality or growth inhibition) at 200 ppm [1] | percent control (mortality, anti-feedant effect or growth inhibition) at 200 ppm [2] | percent effect (mortality or growth inhibition) at 200 ppm [3]
